What is called IC50 is the concentration that gives 50% inhibition.

Assay [1] deals with KRas G12V (Homo sapiens, UniProt P01116, G12V). Kind of assay: biochemical.
Procedure: (§1) The ability of a compound to bind to KRas was measured using a TR-FRET displacement assay. […] After a 60-minute incubation at room temperature, the reaction was measured using a BMG LABTECH CLARIO star Plus via TR-FRET. […] The POC values were fit to a 4-parameter IC50 equation and the IC50 value reported.
Assay [2] concerns the target KRas G12R (Homo sapiens, UniProt P01116, G12R). Kind of assay: biochemical.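 Note: TR-FRET displacement assay of compound binding to KRas, read after one hour at room temperature, potency from a four-parameter fit of percent-of-control values.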
Procedure: as §1
Assay [3] has as its target KRas G12D (Homo sapiens, UniProt P01116, G12D). The assay can be described thus: biochemical.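 Note: TR-FRET displacement binding assay on KRas, read after a one-hour incubation at room temperature, IC50 fitted from percent-of-control values.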
Procedure: as §1
In assay [4] the test system is pERK in ASPC1 cells. The assay can be described thus: Inhibition of KRas phosphorylation of ERK (Cisbio HTRF pERK assay). The settings on record: Homo sapiens, ASPC1, read-out: Inhibition (HTRF IC50) of KRas-mediated Phosphorylation of ERK, AsPC-1. (In general: In TR-FRET formats the signal depends on donor and acceptor labels being close together.)
Procedure: To harvest cells from flask using 0.05% Trypsin/EDTA solution. Add 10 mL of media to stop trypsinizing. Pipette the cells into a conical bottom 50 mL centrifuge tube and centrifuge 5 min×1000 rpm. • 2. Re-suspend the cell pellet in media, take a cell count, and then adjust the cell density using fresh media. • 3. Seed 6,000 cells into cell culture plate with 50 μL media. […] Incubate cell plate overnight in a 37° C., 5% CO2 incubator. • Compound titrations • 1. Use Tecan to complete the compound addition. Compounds start from 10 uM top, 3-fold dilution, and 10 doses. The final DMSO concentration is 0.8%. Dispensed 0.2 uM Trametinib as Min control. • 2. Incubate cell plate for 3 hrs in the incubator. • Detection with cisbio pERK HTRF kit • 1. […] At the end of the compound treatment, flick-off the media. • 3. Add 35 μL of lysis buffer per well using a Multidrop Combi. Then place on a plate agitator shaking at 300 rpm at 4° C. for 40 mins. • 4. Make up the HTRF antibody buffer. For each assay plate, mix 50 μL of d2-conjugate antibody with 950 μL of detection buffer. Similarly, mix 50 μL of Cryptate antibody with 950 μL of detection buffer. Then mix the two diluted antibodies together. • 5. Dispense 3.4 μL the antibody buffer to wells of an empty assay plate. Seal the plate and centrifuge plate 30 sec×1000 rpm. • 6. At the end of the 4° C. lysis, centrifuge the lysate plates 3 mins×1500 rpm. • 7. Use the Bravo to transfer 13.6 μL of lysate from cell culture plate to assay plate.
Then incubate assay plate for 2 hrs at room temperature. […] At the end of incubation, read plate on the Envision after centrifuging plate 30 sec× • 1000 rpm.
Assay [5] deals with pERK in MKN1 cells. The description is as above. The following applies: Homo sapiens, MKN-1, 3 h, read-out: Inhibition (HTRF IC50) of KRas-mediated Phosphorylation of ERK, MKN1.
Assay [6] relates to pERK in PSN1 cells. The description is as above. The settings on record: Homo sapiens, PSN1, 3 h, read-out: Inhibition (HTRF IC50) of KRas-mediated Phosphorylation of ERK, PSN1.
Assay [7] concerns the target KRas G12A (Homo sapiens, UniProt P01116, G12A). The assay can be described thus: biochemical.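 Note: binding to KRas measured by TR-FRET displacement after one hour at room temperature, IC50 from a four-parameter fit of percent-of-control values.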
Procedure: as §1
Assay [8] deals with KRas G12C (Homo sapiens, UniProt P01116, G12C). Kind of assay: biochemical.
Chain of KRas G12C (P01116 1-169 isoform P01116-2 G12C): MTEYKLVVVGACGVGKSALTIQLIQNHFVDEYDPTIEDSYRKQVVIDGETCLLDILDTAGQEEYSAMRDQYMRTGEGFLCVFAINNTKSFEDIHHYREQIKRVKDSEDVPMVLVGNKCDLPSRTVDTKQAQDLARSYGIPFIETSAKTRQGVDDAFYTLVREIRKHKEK
Procedure: as §1
Assay [9] deals with KRas WT (Homo sapiens, UniProt P01116). The assay can be described thus: biochemical.
Chain of KRas WT (P01116 1-169 isoform P01116-2): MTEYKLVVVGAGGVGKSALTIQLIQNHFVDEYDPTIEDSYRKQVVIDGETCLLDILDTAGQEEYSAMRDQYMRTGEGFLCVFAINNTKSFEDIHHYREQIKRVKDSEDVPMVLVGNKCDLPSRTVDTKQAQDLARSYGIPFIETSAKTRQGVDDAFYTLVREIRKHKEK
Procedure: as §1
For assay [10], the target named is KRas G12S (Homo sapiens, UniProt P01116, G12S). Kind of assay: biochemical.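 Note: TR-FRET displacement binding to KRas, read after one hour incubation at room temperature, IC50 from four-parameter fit of percent of control.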
Chain of KRas G12S (P01116 1-169 isoform P01116-2 G12S): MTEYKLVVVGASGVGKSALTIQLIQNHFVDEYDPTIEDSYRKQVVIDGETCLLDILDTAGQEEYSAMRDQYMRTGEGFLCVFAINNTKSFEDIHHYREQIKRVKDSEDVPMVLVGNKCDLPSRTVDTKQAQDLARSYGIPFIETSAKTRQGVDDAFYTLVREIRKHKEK
Procedure: as §1

Chain of KRas G12D (P01116 1-169 isoform P01116-2 G12D): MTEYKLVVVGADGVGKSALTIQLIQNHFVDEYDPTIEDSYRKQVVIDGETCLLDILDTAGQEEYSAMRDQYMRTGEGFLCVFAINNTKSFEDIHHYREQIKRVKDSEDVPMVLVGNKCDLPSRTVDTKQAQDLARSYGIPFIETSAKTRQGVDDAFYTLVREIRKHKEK
Chain of KRas G12R (P01116 1-169 isoform P01116-2 G12R): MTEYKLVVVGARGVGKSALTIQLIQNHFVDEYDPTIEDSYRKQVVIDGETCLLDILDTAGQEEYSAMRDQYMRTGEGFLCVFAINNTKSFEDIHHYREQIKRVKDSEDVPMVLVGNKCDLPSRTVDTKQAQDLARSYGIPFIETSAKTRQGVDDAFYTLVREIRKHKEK
Chain of KRas G12A (P01116 1-169 isoform P01116-2 G12A): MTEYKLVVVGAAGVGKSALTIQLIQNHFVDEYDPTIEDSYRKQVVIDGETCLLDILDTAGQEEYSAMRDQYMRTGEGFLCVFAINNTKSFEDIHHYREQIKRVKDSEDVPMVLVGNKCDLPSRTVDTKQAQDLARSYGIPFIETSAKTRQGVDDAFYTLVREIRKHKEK
Chain of KRas G12V (P01116 1-169 isoform P01116-2 G12V): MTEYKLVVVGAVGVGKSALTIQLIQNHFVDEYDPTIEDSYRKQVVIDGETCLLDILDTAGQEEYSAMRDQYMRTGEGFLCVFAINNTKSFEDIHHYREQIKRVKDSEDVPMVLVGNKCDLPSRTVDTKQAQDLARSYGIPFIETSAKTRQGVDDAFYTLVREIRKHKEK

For the compound `CCc1c(F)ccc2cc(O)cc(-c3ncc4c(NC[C@H]5COC[C@H]5O)nc(OC[C@@]56CCCN5C[C@H](F)C6)nc4c3F)c12` (single isomer, unassigned) [Example 492], the 50% inhibitory concentration (IC50) is 15 nM in assay [1]; 14 nM in [2]; 84 nM in [3]; 3520 nM in assay [4]; 254 nM in assay [5]; no less than 10000 nM in [6].

Regarding `CCc1c(F)ccc2cc(O)cc(-c3ncc4c(NC[C@@H]5COC[C@@H]5O)nc(OC[C@@]56CCCN5C[C@H](F)C6)nc4c3F)c12` (single isomer, unassigned) [Example 493], the IC50 in [1] was 11 nM; in assay [2] it was 9 nM; in assay [3], 130 nM; in assay [4], no less than 10000 nM; in [5], 622 nM; in assay [6] it was no less than 10000 nM.

For `CCc1c(F)ccc2cc(O)cc(-c3ncc4c(N5C[C@@H]6C(CO)NC(=O)[C@@H]6C5)nc(OC[C@@]56CCCN5C[C@H](F)C6)nc4c3F)c12` (stereo in doubt) [Example 488, (3R,3aR,6aS)-5-(7-(8-ethyl-7-fluoro-3-hydroxynaphthalen-1-yl)-8-fluoro-2-(((2R,7aS)-2-fluorotetrahydro-1H-pyrrolizin-7a(5H)-yl)methoxy)pyrido[4,3-d]pyrimidin-4-yl)-3-(hydroxymethyl)hexahydropyrrolo[3,4-c]pyrrol-1(2H)-one], the IC50 in assay [1] was 27 nM; in assay [2], 51 nM; in assay [3], 22 nM; in assay [4], no less than 10000 nM; in [5] it was no less than 10000 nM; in assay [6], no less than 10000 nM.

Turning to `CCc1c(F)ccc2cc(O)cc(-c3ncc4c(N5CCC[C@](C)(O)C5)nc(OC[C@@]56CCCN5C[C@H](F)C6)nc4c3F)c12` [Example 4], the IC50 in [6] is no less than 10000 nM.

For the compound `O=C1CC2(CCCN(c3nc(OCC45CCCN4CCC5)nc4c(F)c(-c5cccc6cccc(F)c56)ncc34)C2)CN1` (centres unmarked) [Example 20, 7-(8-fluoro-7-(8-fluoronaphthalen-1-yl)-2-((hexahydro-1H-pyrrolizin-7a-yl)methoxy)pyrido[4,3-d]pyrimidin-4-yl)-2,7-diazaspiro[4.5]decan-3-one], the IC50 in assay [7] turned out to be 2780 nM; in assay [1], 3400 nM; in assay [2] it was 7390 nM; in [8] it was 3180 nM; in assay [9] it was 2970 nM; in [10], 2980 nM. The same compound registered an IC50 in assay [3] of 2390 nM.

Turning to `Fc1c(-c2cccc3cccc(F)c23)ncc2c(Nc3cnc4cnccn34)nc(OCC34CCCN3CCC4)nc12` [Example 34, 8-fluoro-7-(8-fluoronaphthalen-1-yl)-N-(imidazo[1,2-a]pyrazin-3-yl)-2-((tetrahydro-1H-pyrrolizin-7a(5H)-yl)methoxy)pyrido[4,3-d]pyrimidin-4-amine], the concentration for half-maximal inhibition (IC50) in assay [7] was 48700 nM; in assay [1], 15000 nM; in assay [2], no less than 100000 nM; in [8], 35000 nM; in assay [9] it was 28100 nM; in assay [10], 53500 nM. Moreover, the IC50 in assay [3] was determined as 11100 nM.

With `O=C1NC2(CCCN(c3nc(OCC45CCCN4CCC5)nc4c(F)c(-c5cccc6cccc(F)c56)ncc34)C2)CO1` (centres unmarked) [Example 227, 7-(8-fluoro-7-(8-fluoronaphthalen-1-yl)-2-((hexahydro-1H-pyrrolizin-7a-yl)methoxy)pyrido[4,3-d]pyrimidin-4-yl)-3-oxa-1,7-diazaspiro[4.5]decan-2-one], the concentration for half-maximal inhibition (IC50) in assay [1] turned out to be 2430 nM; in assay [2], 3060 nM; in assay [8], 2720 nM; in [9] it was 3390 nM; in assay [3] it was 1240 nM.

For the compound `CC(Nc1nc(OCC23CCCN2CCC3)nc2c(F)c(-c3cccc4cccc(F)c34)ncc12)c1c[nH]c2ncccc12` (centres unmarked) [Example 229, N-(1-(1H-pyrrolo[2,3-b]pyridin-3-yl)ethyl)-8-fluoro-7-(8-fluoronaphthalen-1-yl)-2-((tetrahydro-1H-pyrrolizin-7a(5H)-yl)methoxy)pyrido[4,3-d]pyrimidin-4-amine], the IC50 in assay [1] stood at 3120 nM; in [2], 2120 nM; in assay [8] it was 4720 nM; in [9], 36800 nM; in assay [3], 85300 nM.

Consider `CNc1cc2n(n1)CCCN(c1nc(OCC34CCCN3CCC4)nc3c(F)c(-c4cccc5cccc(F)c45)ncc13)C2` [Example 263, 5-(8-fluoro-7-(8-fluoronaphthalen-1-yl)-2-((tetrahydro-1H-pyrrolizin-7a(5H)-yl)methoxy)pyrido[4,3-d]pyrimidin-4-yl)-N-methyl-5,6,7,8-tetrahydro-4H-pyrazolo[1,5-a][1,4]diazepin-2-amine], for which the IC50 in assay [7] was 4940 nM; in assay [1] it was 4030 nM; in assay [2], 3040 nM; in assay [8] it was 4410 nM; in assay [9], 9090 nM; in [10] it was 3550 nM. For the same compound, 1980 nM corresponded to half-maximal inhibition in assay [3] (IC50).

`O=C1CC2(CCCN(c3nc(OCC45CCCN4CCC5)nc4c(F)c(-c5cccc6cccc(F)c56)ncc34)C2)C(=O)N1` (centres unmarked) [Example 265, 7-(8-fluoro-7-(8-fluoronaphthalen-1-yl)-2-((hexahydro-1H-pyrrolizin-7a-yl)methoxy)pyrido[4,3-d]pyrimidin-4-yl)-2,7-diazaspiro[4.5]decane-1,3-dione]: the IC50 worked out at 3020 nM in assay [7]; 2740 nM in [1]; 1920 nM in [2]; 3310 nM in assay [8]; 2460 nM in assay [9]; 2510 nM in [10]. The same compound came in with an IC50 in assay [3] of 5310 nM.

Take `NC(=O)C1COCCN(c2nc(OCC34CCCN3CCC4)nc3c(F)c(-c4cccc5cccc(F)c45)ncc23)C1` (centres unmarked) [Example 270, 4-(8-fluoro-7-(8-fluoronaphthalen-1-yl)-2-((hexahydro-1H-pyrrolizin-7a-yl)methoxy)pyrido[4,3-d]pyrimidin-4-yl)-1,4-oxazepane-6-carboxamide]: the half-inhibitory concentration (IC50) in [1] was determined as 2100 nM; in assay [2], 7590 nM; in [8], 2830 nM; in [9], 4190 nM; in [3] it was 2630 nM.

As to `CC(=O)Nc1cc2n(n1)CCCN(c1nc(OCC34CCCN3CCC4)nc3c(F)c(-c4cccc5cccc(F)c45)ncc13)C2` [Example 275, N-(5-(8-fluoro-7-(8-fluoronaphthalen-1-yl)-2-((hexahydro-1H-pyrrolizin-7a-yl)methoxy)pyrido[4,3-d]pyrimidin-4-yl)-5,6,7,8-tetrahydro-4H-pyrazolo[1,5-a][1,4]diazepin-2-yl)acetamide], the 50% inhibitory concentration (IC50) amounted to 9050 nM in assay [1], 7160 nM in assay [2], 24300 nM in assay [9] and 1660 nM in assay [3].

Turning to `O=C(c1cc2n(n1)CCCN(c1nc(OCC34CCCN3CCC4)nc3c(F)c(-c4cccc5cccc(F)c45)ncc13)C2)N1CCOCC1` [Example 276, (5-(8-fluoro-7-(8-fluoronaphthalen-1-yl)-2-((hexahydro-1H-pyrrolizin-7a-yl)methoxy)pyrido[4,3-d]pyrimidin-4-yl)-5,6,7,8-tetrahydro-4H-pyrazolo[1,5-a][1,4]diazepin-2-yl)(morpholino)methanone], the half-inhibitory concentration (IC50) is 303 nM in assay [1], 1210 nM in [2], 3220 nM in assay [9] and 212 nM in assay [3].

With `O=C(c1cc2n(n1)CCCN(c1nc(OCC34CCCN3CCC4)nc3c(F)c(-c4cccc5cccc(F)c45)ncc13)C2)N1CCC1` [Example 277, azetidin-1-yl(5-(8-fluoro-7-(8-fluoronaphthalen-1-yl)-2-((hexahydro-1H-pyrrolizin-7a-yl)methoxy)pyrido[4,3-d]pyrimidin-4-yl)-5,6,7,8-tetrahydro-4H-pyrazolo[1,5-a][1,4]diazepin-2-yl)methanone], the IC50 in assay [1] was 1800 nM; in assay [2], 4910 nM; in assay [9], 5290 nM; in assay [3], 765 nM.

Regarding `Cc1c(N)nn2c1CN(c1nc(OCC34CCCN3CCC4)nc3c(F)c(-c4cccc5cccc(F)c45)ncc13)CCC2` [Example 278, 5-(8-fluoro-7-(8-fluoronaphthalen-1-yl)-2-((hexahydro-1H-pyrrolizin-7a-yl)methoxy)pyrido[4,3-d]pyrimidin-4-yl)-3-methyl-5,6,7,8-tetrahydro-4H-pyrazolo[1,5-a][1,4]diazepin-2-amine], the IC50 in [1] was found to be 1990 nM; in [2], 1860 nM; in [9], 3670 nM; in assay [3], 801 nM.

For the compound `CCc1c(F)ccc2cc(O)cc(-c3ncc4c(NCCN5CCNC5=O)nc(OC[C@@]56CCCN5C[C@H](F)C6)nc4c3F)c12` [Example 372, 1-(2-((7-(8-ethyl-7-fluoro-3-hydroxynaphthalen-1-yl)-8-fluoro-2-(((2R,7aS)-2-fluorotetrahydro-1H-pyrrolizin-7a(5H)-yl)methoxy)pyrido[4,3-d]pyrimidin-4-yl)amino)ethyl)imidazolidin-2-one], the IC50 in [1] was 5 nM; in [2] it was 13 nM; in assay [3] it was 56 nM; in assay [5], 660 nM; in assay [6], no less than 10000 nM.

For the origin of these results see patent US12398154B2, “Azaquinazoline pan-KRas inhibitors” (Mirati Therapeutics, Inc., priority 2020, dated 2025).
